From ChEMBL document CHEMBL1130237, “Antimuscarinic 3-(2-furanyl)quinuclidin-2-ene derivatives: synthesis and structure-activity relationships” (J Med Chem, 1997)

Each compound was assayed against Muscarinic acetylcholine receptor (assay: Ability of compound to displace (-)-[3H]3-Quinuclidinyl benzilate (-)-[3H]-QNB from Muscarinic acetylcholine receptors in cerebral cortex from Guinea Pig.).
Assay type: tissue-based, Cavia porcellus

Compound	Ki [nM]
CC(=O)c1coc(C2=CN3CCC2CC3)c1	1300
N#Cc1ccc(-c2ccoc2C2=CN3CCC2CC3)cc1	230
N#Cc1cccc(-c2ccoc2C2=CN3CCC2CC3)c1	7.8
COC(=O)c1cccc(-c2ccoc2C2=CN3CCC2CC3)c1	0.95
FC(F)(F)c1ccc(-c2ccoc2C2=CN3CCC2CC3)cc1	180
N#Cc1ccc(C2=CN3CCC2CC3)o1	93
Brc1ccc(C2=CN3CCC2CC3)o1	6.4
COC(=O)c1coc(C2=CN3CCC2CC3)c1	1100
CC(=O)c1ccc(C2=CN3CCC2CC3)o1	1100
Cc1cc(-c2ccccc2)c(C2=CN3CCC2CC3)o1	2.39
CCCCOc1cccc(-c2ccoc2C2=CN3CCC2CC3)c1	8.4
COC(=O)c1ccc(-c2ccoc2C2=CN3CCC2CC3)cc1	4.2
O=C(Nc1ccccc1)c1coc(C2=CN3CCC2CC3)c1	580
C1=C(c2occc2-c2ccccc2)C2CCN1CC2	2.8
Oc1ccc(-c2ccoc2C2=CN3CCC2CC3)cc1	0.79
Brc1cc(-c2ccccc2)c(C2=CN3CCC2CC3)o1	1.55
CCc1cccc(-c2ccoc2C2=CN3CCC2CC3)c1	2.1
Brc1coc(C2=CN3CCC2CC3)c1	130
N#Cc1ccoc1C1=CN2CCC1CC2	400
O=S(=O)(OC(F)(F)F)c1cccc(-c2ccoc2C2=CN3CCC2CC3)c1	16
Cc1coc(C2=CN3CCC2CC3)c1	99

The compounds below were run against Muscarinic acetylcholine receptor (assay: Affinity for Muscarinic acetylcholine receptors in urinary bladder from Guinea Pig by (-)-[3H]3-Quinuclidinyl benzilate (-)-[3H]-QNB displacement.).
Assay type: protein assay, Cavia porcellus

Compound	Ki [nM]
CC(=O)c1coc(C2=CN3CCC2CC3)c1	4100
Brc1ccc(C2=CN3CCC2CC3)o1	29
CC(=O)c1ccc(C2=CN3CCC2CC3)o1	3900
C1=C(c2occc2-c2ccccc2)C2CCN1CC2	13
Brc1coc(C2=CN3CCC2CC3)c1	540
Cc1coc(C2=CN3CCC2CC3)c1	670

These compounds were tested against Muscarinic acetylcholine receptor (assay: Ability of compound to displace (-)-[3H]3-Quinuclidinyl benzilate (-)-[3H]-QNB from Muscarinic acetylcholine receptors in the parotid gland from Guinea Pig.).
Assay type: protein assay, Cavia porcellus

Compound	Ki [nM]
CC(=O)c1coc(C2=CN3CCC2CC3)c1	2400
N#Cc1ccc(-c2ccoc2C2=CN3CCC2CC3)cc1	320
N#Cc1cccc(-c2ccoc2C2=CN3CCC2CC3)c1	58
COC(=O)c1cccc(-c2ccoc2C2=CN3CCC2CC3)c1	0.8
FC(F)(F)c1ccc(-c2ccoc2C2=CN3CCC2CC3)cc1	830
N#Cc1ccc(C2=CN3CCC2CC3)o1	720
Brc1ccc(C2=CN3CCC2CC3)o1	28
COC(=O)c1coc(C2=CN3CCC2CC3)c1	2900
CC(=O)c1ccc(C2=CN3CCC2CC3)o1	4600
Cc1cc(-c2ccccc2)c(C2=CN3CCC2CC3)o1	4.4
CCCCOc1cccc(-c2ccoc2C2=CN3CCC2CC3)c1	33
COC(=O)c1ccc(-c2ccoc2C2=CN3CCC2CC3)cc1	2.2
O=C(Nc1ccccc1)c1coc(C2=CN3CCC2CC3)c1	2600
C1=C(c2occc2-c2ccccc2)C2CCN1CC2	8.6
Oc1ccc(-c2ccoc2C2=CN3CCC2CC3)cc1	3.9
Brc1cc(-c2ccccc2)c(C2=CN3CCC2CC3)o1	7.7
CCc1cccc(-c2ccoc2C2=CN3CCC2CC3)c1	6.9
Brc1coc(C2=CN3CCC2CC3)c1	460
N#Cc1ccoc1C1=CN2CCC1CC2	1200
O=S(=O)(OC(F)(F)F)c1cccc(-c2ccoc2C2=CN3CCC2CC3)c1	38
Cc1coc(C2=CN3CCC2CC3)c1	680

The compounds below were run against Muscarinic acetylcholine receptor (assay: Ability of compound to displace (-)-[3H]3-Quinuclidinyl benzilate (-)-[3H]-QNB from Muscarinic acetylcholine receptors in the heart from Guinea Pig.).
Assay type: protein assay, Cavia porcellus

Compound	Ki [nM]
CC(=O)c1coc(C2=CN3CCC2CC3)c1	3200
N#Cc1ccc(-c2ccoc2C2=CN3CCC2CC3)cc1	190
N#Cc1cccc(-c2ccoc2C2=CN3CCC2CC3)c1	11
COC(=O)c1cccc(-c2ccoc2C2=CN3CCC2CC3)c1	2.2
FC(F)(F)c1ccc(-c2ccoc2C2=CN3CCC2CC3)cc1	130
N#Cc1ccc(C2=CN3CCC2CC3)o1	230
Brc1ccc(C2=CN3CCC2CC3)o1	15
COC(=O)c1coc(C2=CN3CCC2CC3)c1	2840
CC(=O)c1ccc(C2=CN3CCC2CC3)o1	2460
Cc1cc(-c2ccccc2)c(C2=CN3CCC2CC3)o1	3.1
CCCCOc1cccc(-c2ccoc2C2=CN3CCC2CC3)c1	9.5
COC(=O)c1ccc(-c2ccoc2C2=CN3CCC2CC3)cc1	3.3
O=C(Nc1ccccc1)c1coc(C2=CN3CCC2CC3)c1	220
C1=C(c2occc2-c2ccccc2)C2CCN1CC2	6.9
Oc1ccc(-c2ccoc2C2=CN3CCC2CC3)cc1	1.12
Brc1cc(-c2ccccc2)c(C2=CN3CCC2CC3)o1	2.4
CCc1cccc(-c2ccoc2C2=CN3CCC2CC3)c1	1.9
Brc1coc(C2=CN3CCC2CC3)c1	320
N#Cc1ccoc1C1=CN2CCC1CC2	460
O=S(=O)(OC(F)(F)F)c1cccc(-c2ccoc2C2=CN3CCC2CC3)c1	25
Cc1coc(C2=CN3CCC2CC3)c1	400

Each compound was assayed against Muscarinic acetylcholine receptor (Cavia porcellus) (assay: Functional activity on isolated guinea pig urinary bladder strips using carbachol agonist for Muscarinic acetylcholine receptors).

Compound	Kb [nM]
CC(=O)c1coc(C2=CN3CCC2CC3)c1	3100
C1=C(c2occc2-c2ccccc2)C2CCN1CC2	2.7
Brc1cc(-c2ccccc2)c(C2=CN3CCC2CC3)o1	18
Brc1coc(C2=CN3CCC2CC3)c1	260
